ChEMBL document CHEMBL5506023, “Design, Synthesis, and Evaluation of Dihydropyrimidine Derivatives as Selective PDE1 Inhibitors for the Treatment of Liver Fibrosis” (J Med Chem, 2024)
Each block holds one compound with its values, some of them ahead of it. Active and inactive are the calls of the source. The calls are words filed in the database; no cut-off is given here.

What was measured:
[1] = biological target: T1, Dual specificity calcium/calmodulin-dependent 3',5'-cyclic nucleotide phosphodiesterase 1C (Homo sapiens, UniProt Q14123); assay: Inhibition of PDE1C2 (147 to 531 residues) (unknown origin) using 3H-cGMP as substrate incubated for 15 mins by liquid scintillation counter analysis
[2] = Half life in rat liver microsomes at 1.5 uM; type: ADME, Microsome
[3] = biological target: T1, Dual specificity calcium/calmodulin-dependent 3',5'-cyclic nucleotide phosphodiesterase 1C; assay: Inhibition of PDE1C2 (147 to 531 residues) (unknown origin) using 3H-cGMP as substrate at 8000 nM incubated for 15 mins by liquid scintillation counter analysis relative to control
Rattus norvegicus [4] = assay: Antifibrotic activity against bile duct ligation induced Sprague-Dawley rat liver fibrosis model assessed as increase in cAMP level in liver at 2.5 mg/kg,ip administrated once daily for 21 days by ELISA; type: functional, organism-based; settings: time 21.0 day
Rattus norvegicus [5] = assay: Antifibrotic activity against bile duct ligation induced Sprague-Dawley rat liver fibrosis model assessed as reduction in total bile acid level at 2.5 mg/kg,ip administrated once daily for 21 days; type: functional, organism-based; settings: time 21.0 day
Rattus norvegicus [6] = assay: Antifibrotic activity against bile duct ligation induced Sprague-Dawley rat liver fibrosis model assessed as reduction in collagen deposition at 2.5 mg/kg,ip administrated once daily for 21 days by Masson's trichome staining based analysis; type: functional, organism-based; settings: time 21.0 day
Rattus norvegicus [7] = assay: Antifibrotic activity against bile duct ligation induced Sprague-Dawley rat liver fibrosis model assessed as reduction in ALT level at 2.5 mg/kg,ip administrated once daily for 21 days; type: functional, organism-based; settings: time 21.0 day
Rattus norvegicus [8] = assay: Antifibrotic activity against bile duct ligation induced Sprague-Dawley rat liver fibrosis model assessed as increase in cGMP level in liver at 2.5 mg/kg,ip administrated once daily for 21 days by ELISA; type: functional, organism-based; settings: time 21.0 day
Rattus norvegicus [9] = assay: Antifibrotic activity against bile duct ligation induced Sprague-Dawley rat liver fibrosis model assessed as downregulation of collagen I expression in liver at 2.5 mg/kg,ip administrated once daily for 21 days by Western blotting analysis; type: functional, organism-based; settings: time 21.0 day
Rattus norvegicus [10] = assay: Antifibrotic activity against bile duct ligation induced Sprague-Dawley rat liver fibrosis model assessed as reduction in AST level at 2.5 mg/kg,ip administrated once daily for 21 days; type: functional, organism-based; settings: time 21.0 day
Rattus norvegicus [11] = assay: Antifibrotic activity against bile duct ligation induced Sprague-Dawley rat liver fibrosis model assessed as reduction in liver damage at 2.5 mg/kg,ip administrated once daily for 21 days by hematoxylin and eosin staining based analysis; type: functional, organism-based; settings: time 21.0 day
Rattus norvegicus [12] = assay: Antifibrotic activity against bile duct ligation induced Sprague-Dawley rat liver fibrosis model assessed as downregulation of alpha-SMA expression in liver at 2.5 mg/kg,ip administrated once daily for 21 days by Western blotting analysis; type: functional, organism-based; settings: time 21.0 day
Rattus norvegicus [13] = assay: Antifibrotic activity against bile duct ligation induced Sprague-Dawley rat liver fibrosis model assessed as reduction in alpha-smooth muscle actin level in liver at 2.5 mg/kg,ip administrated once daily for 21 days by immunofluorescence staining based analysis; type: functional, organism-based; settings: time 21.0 day
Rattus norvegicus [14] = assay: Antifibrotic activity against bile duct ligation induced Sprague-Dawley rat liver fibrosis model assessed as reduction in fibrotic lesion at 2.5 mg/kg,ip administrated once daily for 21 days by hematoxylin and eosin staining based analysis; type: functional, organism-based; settings: time 21.0 day

T1 sequence (Q14123 whole entry, the tested form may be a part): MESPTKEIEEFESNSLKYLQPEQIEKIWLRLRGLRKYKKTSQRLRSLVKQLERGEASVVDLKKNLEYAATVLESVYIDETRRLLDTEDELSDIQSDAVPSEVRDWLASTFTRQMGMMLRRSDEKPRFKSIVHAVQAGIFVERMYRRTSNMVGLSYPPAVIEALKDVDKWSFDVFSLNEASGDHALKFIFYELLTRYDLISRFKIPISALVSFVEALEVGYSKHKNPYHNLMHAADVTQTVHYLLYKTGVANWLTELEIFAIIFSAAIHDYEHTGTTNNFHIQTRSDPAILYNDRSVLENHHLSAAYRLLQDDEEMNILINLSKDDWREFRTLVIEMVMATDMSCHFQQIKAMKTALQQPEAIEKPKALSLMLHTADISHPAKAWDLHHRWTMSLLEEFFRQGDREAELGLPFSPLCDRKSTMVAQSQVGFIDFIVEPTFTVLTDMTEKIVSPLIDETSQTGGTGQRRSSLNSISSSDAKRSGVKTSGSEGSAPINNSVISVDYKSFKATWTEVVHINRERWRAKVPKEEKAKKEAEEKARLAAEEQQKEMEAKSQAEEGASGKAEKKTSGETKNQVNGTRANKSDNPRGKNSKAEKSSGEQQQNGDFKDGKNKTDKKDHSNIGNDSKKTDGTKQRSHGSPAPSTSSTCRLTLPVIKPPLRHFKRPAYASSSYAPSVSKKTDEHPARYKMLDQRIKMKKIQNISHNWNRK

- IC50 [1]: 37 nM
SMILES: COC(=O)C1=C(C)NC(=O)N(C(=O)OCC2CCCCC2)C1c1ccc(OC(F)F)c(OCC2CC2)c1 (stereo unspecified)

- half-life at 1.5 µM [2]: 3.68 min
- IC50 [1]: 2.3 nM
SMILES: CC1=C(C(=O)OCC2CCCCC2)C(c2ccc(OC(F)F)c(OCC3CC3)c2)N(C(=O)OCC2CCCCC2)C(=O)N1 (stereo unspecified)

- IC50 [1]: 195 nM
SMILES: CC1=C(C(=O)OCC2CCCCC2)C(c2ccc(Cl)nc2)N(C(=O)OCC2CCCCC2)C(=O)N1 (stereo unspecified)

- half-life at 1.5 µM [2]: 6.1 min
- IC50 [1]: 5.8 nM
SMILES: CC1=C(C(=O)OCC2CCCCC2)C(c2ccc(OC(F)F)c(OCC3CC3)c2)N(C(=S)Oc2ccccc2)C(=O)N1 (stereo unspecified)

- IC50 [1]: 103 nM
SMILES: COC(=O)C1=C(C)NC(=O)N(C(=O)SCc2ccccc2)C1c1ccc(OC(F)F)c(OCC2CC2)c1 (stereo unspecified)

- IC50 [1]: 2320 nM
SMILES: CC(=O)N1C(=O)NC(C)=C(C(=O)OCC2CCCCC2)C1c1ccc(OC(F)F)c(OCC2CC2)c1 (stereo unspecified)

- IC50 [1]: 51 nM
SMILES: COc1ccc(C2C(C(=O)OCC3CCCCC3)=C(C)NC(=O)N2C(=O)OCC2CCCCC2)cn1 (stereo unspecified)

- half-life at 1.5 µM [2]: 3.03 min
- IC50 [1]: 7.5 nM
SMILES: CC1=C(C(=O)OCC2CCCCC2)C(c2ccc(OC(F)F)c(OC(F)F)c2)N(C(=O)OCC2CCCCC2)C(=O)N1 (stereo unspecified)

- half-life at 1.5 µM [2]: 2.1 min
- IC50 [1]: 5.9 nM
SMILES: COc1ccc(C2C(C(=O)OCC3CCCCC3)=C(C)NC(=O)N2C(=O)OCC2CCCCC2)cc1OC (stereo unspecified)

- inhibition [3]: 40%
SMILES: CC1=C(C(=O)OCC2CCCCC2)C(c2ccc(OC(F)F)c(OCC3CC3)c2)N(Cc2cccc(F)c2)C(=O)N1 (stereo unspecified)

- IC50 [1]: 42 nM
SMILES: COc1ccc(C2C(C(=O)OCC3CCCC3)=C(C)NC(=O)N2C(=O)OCC2CCCC2)cc1OC (stereo unspecified)

- IC50 [1]: 42 nM
SMILES: CC1=C(C(=O)OCC2CCCCC2)C(c2cccc(OCC3CC3)c2)N(C(=O)SCc2ccccc2)C(=O)N1 (stereo unspecified)

- IC50 [1]: 63 nM
SMILES: COc1ccc(C2C(C(=O)OCc3ccccc3)=C(C)NC(=O)N2C(=O)OCc2ccccc2)cc1OC (stereo unspecified)

- half-life at 1.5 µM [2]: 7.1 min
- IC50 [1]: 21 nM
SMILES: CC1=C(C(=O)OCC2CCCCC2)C(c2ccc(OC(F)F)cc2)N(C(=O)SCc2ccccc2)C(=O)N1 (stereo unspecified)
- Activity (Rattus norvegicus [4]): Active
- Activity (Rattus norvegicus [5]): Active
- Activity (Rattus norvegicus [6]): Active
- Activity (Rattus norvegicus [7]): Active
- Activity (Rattus norvegicus [8]): inactive
- Activity (Rattus norvegicus [9]): Active
- Activity (Rattus norvegicus [10]): Active
- Activity (Rattus norvegicus [11]): Active
- Activity (Rattus norvegicus [12]): Active
- Activity (Rattus norvegicus [13]): Active
- Activity (Rattus norvegicus [14]): Active

- inhibition [3]: 45%
SMILES: CC1=C(C(=O)OCC2CCCCC2)C(c2ccc(OC(F)F)c(OCC3CC3)c2)N(C)C(=O)N1 (stereo unspecified)

- IC50 [1]: 6060 nM
SMILES: CC1=C(C(=O)OCC2CCCCC2)C(c2ccc(OC(F)F)c(OCC3CC3)c2)N(C(=O)/C=C/c2ccccc2)C(=O)N1 (stereo unspecified)

- IC50 [1]: 4690 nM
SMILES: CCNC(=O)N1C(=O)NC(C)=C(C(=O)OCC2CCCCC2)C1c1ccc(OC(F)F)c(OCC2CC2)c1 (stereo unspecified)

- IC50 [1]: 2940 nM
SMILES: CC1=C(C(=O)OCC2CCCCC2)C(c2cccc(Oc3ccccc3)c2)NC(=O)N1 (stereo unspecified)

- IC50 [1]: 3590 nM
SMILES: COc1ccc(C2NC(=O)NC(C)=C2C(=O)OCC2CCCCC2)cc1OC (stereo unspecified)

- inhibition [3]: 47%
SMILES: CC1=C(C(=O)OCC2CCCCC2)C(c2ccc(OC(F)F)c(OCC3CC3)c2)N(/C=C/Cc2ccccc2)C(=O)N1 (stereo unspecified)
